Columns and labels:
[1] = tested on: cerebral ischaemia induced by endothelin-1 (MCA occlusion); assay: Tests of protection against experimentally induced cerebral ischaemia (endothelin-1, MCA occlusion); assay type: in vivo; conditions: rat; i.v. 5 minutes after endothelin-1; propionyl/acetyl L-carnitine 50 mg/kg, Ginkgo biloba 10 mg/kg; checked after 3 days
Protocol: Since a major responsible for causing damage following cerebral ischaemia is known to be the production of superoxides and free radicals (Litton S. A., Nature, 364:625, 1993), in these tests cerebral ischaemia was brought about by occluding the middle cerebral artery (MCA) of the rat according to the method described by Scharkey (Scharkey Y., Nature, 371:336, 1994) by injecting to the anaesthetized animal endothelin-1 (120 pml), for a duration of 3 minutes with a microcannula placed stereotactically in the pyriform cortex at the level of the middle cerebral artery (MCA).
The ischaemic area thus produced was checked after 3 days with transcardiac perfusion of paraformaldehyde solution (4% in PBS).
After removing the brain and placing it in a fixator containing 10% saccharose, cryostat sections were fixed in methyl violet and examined under the optical microscope.
The administration of propionyl L-carnitine (50 mg/kg), acetyl L-carnitine (50 mg/kg) and of a solution of Ginkgo biloba (10 mg/kg), or these compounds in combination, was performed intravenously 5 minutes following injection of endothelin-1.
The volume of the infarcted area was calculated according to the method described by Park (Park C., Anns. Neurol., 20:150, 1989).

[2] = tested on: pitressin-induced coronary spasm; assay: Coronary spasm tests (pitressin); assay type: in vivo, rat; conditions: oral, three days before pitressin i.v.; Ginkgo biloba extract 100 mg/kg, carnitines or carnitine mixture 300 mg/kg; number of rats
Text: Enhancement of the activity of Ginkgo biloba when combined with carnitines was also found on evaluating the effects of the administration of these substances alone and in combination on pitressin-induced experimental coronary spasm.
As is known, intravenous injection of 1 v/kg of pitressin in the rat causes characteristic electrocardiographic abnormalities which are most noticeable in lead II as affecting the T wave (asphyxial T wave) due to the diminished myocardial oxygenation related to the reduced coronary flow caused by the pitressin-induced vascular spasm.
In these tests, before being injected with pitressin, the rats received oral administrations for three days consecutively of 100 mg/kg of Ginkgo biloba extracts, or of 300 mg/kg of carnitines alone or carnitine mixture, or of carnitine or carnitine mixture in combination with Ginkgo biloba.

[3] = tested on: PAF-induced oedema of the rat paw; assay: PAF-induced inflammatory reaction tests (paw oedema, plethysmographic); assay type: in vivo; conditions: 300 mg/kg i.p. one hour before PAF 2 μg into rear paw, rats
Protocol: In these experiments, a solution containing PAF was injected into the paws of rats according to the method described by Burstein (Burstein S. H., J. Pharmacol. Exptl. Ther., 251:531, 1989).
As is known, PAF injected into the rat paw causes the release of numerous phlogogenic substances, including prostaglandins, which gives rise in a short time to the onset of marked oedema (Bonnet J., J. Agent Actions, 11:559, 1981).
Using the method described by Goldenberg (Goldenberg M. M., Prostaglandins, 28:271, 1984) and Silva (Silva P. M. R., Inflammation, 10:393, 1986), a solution of PAF at an overall dose of 2 μg was injected into the rear paws of rats, and the ensuing oedematous reaction was evaluated with a plethysmographic method according to the technique described by Ferreira (Ferreira S. H., J. Pharmacol., 127:83, 1979).
The tests were conducted in various groups of rats, one of which was a control group, while the others received intraperitoneal administrations, one hour before to PAF injection, of acetyl L-carnitine (300 mg/kg), or propionyl L-carnitine (300 mg/kg), or of a combination of L-carnitine (75 mg/kg), acetyl L-carnitine (75 mg/kg) and propionyl L-carnitine (75 mg/kg), or of a Ginkgo biloba extract (100 mg/kg), or of the Ginkgo biloba extract plus carnitines.

[4] = tested on: PAF-induced mortality; assay: PAF-induced mortality tests; assay type: in vivo, albino mice; conditions: 300 mg/kg i.p. one hour before PAF 20 μg/kg i.v., mice
Protocol: Platelet-activating factor (PAF) is an acetylated alkyl phosphoglyceride whose release in the body, under various stimuli, causes circulatory-type reactions related mainly to increased capillary permeability, with consequent extravasation of blood, increased platelet aggregation and thrombosis, reduced coronary flow, release of inflammatory factors, lysosomal enzymes and superoxides.
When administered intravenously (20 μg/kg) to animals, PAF causes the death of the animals treated with it in a short space of time, i.e. approximately one hour, mainly as a result of cardiocirculatory collapse.
A series of tests was conducted using the method described by Young (Young J. N., Prostaglandins 30:545, 1985) and by Myers (Myers H., Br. J. Pharmacol., 79:595, 1983) in order to assess whether Ginkgo biloba extracts (whose anti-PAF activity is known) protect animals injected with PAF against death and whether the carnitines (particularly propionyl L-carnitine, whose vascular regulatory activity is known) are capable of increasing the protective effect against PAF.
The tests were conducted on albino mice with a mean weight of 25 g divided into various groups, the first of which served as control group and received intravenous injections of PAF at the dose of 20 μg/kg, while the other groups were administered intraperitoneal injections, one hour before to PAF administration, either of Ginkgo biloba extract, or of the various carnitines alone or in combination, or of Ginkgo biloba plus carnitines.

[5] = tested on: collagen-induced platelet aggregation; assay: Platelet aggregation tests; assay type: cell-based, human (healthy volunteers); conditions: collagen 2.5 μg/ml, 10 minutes' incubation; for ED50 (platelet aggregation): human blood
Protocol: In these tests, blood samples were taken from healthy volunteers with a platelet content of at least 300,000/mm^3. The method described by Born (Born J. V. R. J. Physiol., 26:25 1963) was used to induce platelet aggregation.
Platelet aggregation was induced by collagen (2.5 μg/ml) and measured both at the beginning and after 10 minutes' incubation with propionyl L-carnitine, acetyl L-carnitine, Ginkgo biloba extract or with these compounds in various combinations.

[6] = tested on: pheochromocytoma cells (PC-12); assay: Tests of H2O2 toxicity on pheochromocytoma cells (PC-12); assay type: cell-based; conditions: 10^−8 M; PC-12, H2O2 30 minutes, 24 hours of observation; H2O2 alone approximately 38%
Protocol: In these tests, a pheochromocytoma cell (PC-12) culture was used containing 3×10^5 M cells/ml which was submitted for 30 minutes to 0.1 g mM H2O2.

| SMILES | magnitude of ischaemia (volume mm^3) due to MCA occlusion [1] | Rats not protected [2] | Rats protected [2] | Rats weakly protected [2] | % reduction of oedema [3] | % mortality 1 h after PAF injection [4] | reduction of platelet aggregation (in words) [5] | ED50 (platelet aggregation) [5] | survival of the cells [6] |
| --- | --- | --- | --- | --- | --- | --- | --- | --- | --- |
| CCC(=O)O[C@H](CC(=O)[O-])C[N+](C)(C)C [Propionyl L-carnitine, propionyl L-carnitine] | 32.6 ± 2.4 mm^3 | 4 | 2 | 3 | 35% | 80/100 | only to a slight extent | 30.5 ± 0.41 µg | 45% |
| CC(=O)O[C@H](CC(=O)[O-])C[N+](C)(C)C [Acetyl L-carnitine, acetyl L-carnitine] | 21.6 ± 1.8 mm^3 | 3 | 1 | 3 | 15% | 80/100 | only to a slight extent | 26.4 ± 0.34 µg | 55% |
| C[N+](C)(C)C[C@H](O)CC(=O)[O-] [L-carnitine] |  | 3 | 0 | 1 | 10% | 90/100 |  |  |  |

— patent US6641849B1, “Composition for the prevention and/or treatment of circulatory disorders, comprising derivatives of L-carnitine and extracts of ginkgo biloba” (Sigma-Tau HealthScience S.p.A., priority 1999, dated 2003)
